These results are taken from ChEMBL document CHEMBL5344482, “Deconvoluting low yield from weak potency in direct-to-biology workflows with machine learning” (RSC Med Chem, 2024).

Molecules are shown by their SMILES. pIC50: −log10 of the molar value.

For assay [1], the target named is Replicase polyprotein 1ab (Severe acute respiratory syndrome coronavirus 2) (UniProt P0DTD1). In words: Inhibition of SARS-Cov-2 main protease using fluorogenic substrate [5-FAM]-AVLQSGFR-[Lys(Dabcyl)]-K-amide by fluorogenic assay relative to control.
The target of assay [2] is Replicase polyprotein 1ab (Severe acute respiratory syndrome coronavirus 2, UniProt P0DTD1). In words: Inhibition of SARS-Cov-2 main protease using fluorogenic substrate [5-FAM]-AVLQSGFR-[Lys(Dabcyl)]-K-amide by fluorogenic assay.

Take `Nc1ncc(C(F)(F)F)cc1Cl`: the inhibition (as a rule, how much of the control response was suppressed) in assay [1] is 35%.

As to `NCCc1ccc(C(F)F)cc1`, the negative logarithm of the IC50 (pIC50) – broadly, the IC50 on a negative log10 scale, so that one unit is a factor of ten – in assay [2] was 7.30.

Consider `NCCc1cccc(Cl)c1`, for which, in assay [2], the pIC50 is 7.28.
